| SMILES | melting point [°C] |
| --- | --- |
| O=C(O)c1ccc(-c2csc(-c3ccc(Cl)cc3)n2)cc1 | 284 to 285 |
| COC(=S)c1c[nH]c(-c2ccccc2)c1 | 107 to 109 |
| CC(C)(C)c1cc(Nc2ccc(CCC(=O)O)cc2)cc(C(C)(C)C)c1O | 140 to 142 |
| COc1cc(Nc2c(C#N)cnc3cc(-c4ccc(CN5CCC(CC(=O)O)CC5)cc4)ccc23)c(Cl)cc1Cl | 239 to 240 |
| COc1ccc(C(c2ccc(N(C)C)cc2)c2ccc(N(C)C)cc2C(=O)O)cc1 (stereo not drawn) | 185 to 190 |
| CNc1cnc2ccc(Cl)cc2c1-c1ccccc1 | 139 to 140 |
| CC(C)c1cn2cccc(C=O)c2n1 | 70 to 72 |
| Cc1ccc(-c2ccccc2C(=O)Nc2ccc(C(=O)N3C[C@@H]4C[C@@H](O)CN4c4ccccc43)cc2)cc1 | 163 to 164 |
| CCOc1c(C(=O)O)cnc2nn(C)cc12 | 222 to 225 |
| CC(=O)OC(c1ccccc1)C1C(=O)NC1S(C)(=O)=O (mixture of isomers) | 178 to 182 |
| Clc1cccc(Nc2nccc(-c3ccncc3)n2)c1 | 167 to 168 |
| COc1ccc2c(c1)C(O)c1cc(CO)ccc1O2 (stereo not drawn) | 142 to 143 |
| CCOC(=O)c1c(N)n(CC)c2nc(Cl)ccc2c1=O | 252 |
| CNC(=O)C(=Cc1cccc(-c2ccc(C)c(C)c2)c1)NC(C)=O | 224 |
| O=C(O)COc1c(I)cc(-c2c3ccccc3cc3sc4ccccc4c23)cc1I | 250 to 252 |
| Cn1cc(-c2cc3cccnc3[nH]2)c2cc(C(=O)NC(CO)(CO)CO)ccc21 | 205 to 206 |
| COc1cccc(Oc2ccc3nc(C(C)=O)c(O)cc3c2)c1 | 102 to 104 |
| Clc1ccc(N2CCN(Cc3n[nH]c4c(Cl)cccc34)CC2)cc1 | 152 to 154 |
| CCn1c(=O)n(O)c(=O)c2cc(F)c(N3CCCCC3)cc21 | 173 to 175 |
| Cc1nc(C)c(Cl)c(NCc2nccc(OCCCCN3CCNCC3)c2C)n1 | 140 to 144 |
| COC(=O)c1ccc(C(C)(C)NC(C)=O)cc1 | 165 to 167 |
| COC(=O)C1CCC2C3CCC4CC(OC(=O)CCl)CCC4(C)C3C(OC(=O)CCl)CC12C (stereo not drawn) | 149 to 155 |
| C#Cc1cnn(-c2ccnc3cc(Cl)ccc23)c1 | 174 to 175 |
| CCC1C(C)=NN=C(c2ccccc2C)c2cc(OC)c(OC)cc21 (stereo not drawn) | 170 to 171 |
| Nc1cc([N+](=O)[O-])c(N)cc1Cl | 157 |

| SMILES | melting point [°C] |
| --- | --- |
| C#CCOc1cc(Oc2cc(Cl)ccc2Cl)ncn1 | 87.7 |
| O=[N+]([O-])c1cc2c(Nc3cc(Cl)c(Cl)cc3F)ncnc2cc1OCCOCCO | 149 |
| COc1ccc(N2CC(CN3CCC(O)(c4ccccc4)CC3)OC2=O)cc1 (stereo not drawn) | 141 to 143 |
| N#Cc1c(C(N)=O)c2n(c1C1CC1)CCN(C(=O)Nc1ccc(C(=O)O)cc1)C2 | 279 to 280 |
| O=C(Nc1ccc2c(c1)CCC2=O)c1ccc(-c2ccccc2)cc1 | 217 to 219 |
| CCOC(=O)CNC(=O)[C@H](Cc1ccc(O)cc1)NC(=O)[C@H](CO)NC(=O)[C@H](Cc1c[nH]c2ccccc12)NC(=O)[C@H](Cc1c[nH]cn1)NC(=O)[C@@H]1CCC(=O)N1 | 218 to 220 |
| C=CCc1c(-c2cc(=O)c3c(O)cc(OCC(=O)OCC)cc3o2)ccc(OC)c1O | 155 |
| C[C@](O)(COc1ccc(C#N)c(F)c1)C(=O)Nc1ccc(C#N)c(C(F)(F)F)c1 | 124 to 125 |
| COc1ncc(C=O)cc1Br | 94 to 95 |
| CCCc1nn(-c2ccc(C(F)(F)F)cn2)cc1CCCCn1cc(CCC(=O)O)c(-c2ccc(F)cc2)n1 | 119 to 121 |
| O=C(O)C1(C(=O)O)CCC(c2c(-c3ccccc3)[nH]c3ccccc23)CC1 | 196 to 197 |
| Nc1nc(N)c(-c2cc(Cl)cc(Cl)c2Cl)c(C(F)(F)F)n1 | 226 to 227 |
| COc1cc(C)ccc1OCc1ccccc1 | 38 to 39 |
| O=C(O)C1=Cc2cc(I)ccc2NC1C(F)(F)F (stereo not drawn) | 188 to 192 |
| CCOC(=O)c1cccc(Nc2nccc(-c3cccnc3)n2)c1 | 197 to 199 |
| CCNC(=O)c1cccc2[nH]n(C)c(=O)c12 | 192 to 194 |
| COC1=C(OC)C(=O)C2=C(CCC(CCOc3cc(OC)cc(OC)c3)CC2)C1=O | 63 to 65 |
| Nc1cccc(OCc2nc3ccccc3s2)c1 | 117 to 120 |
| COC(=O)c1cccc(O)c1C | 74 to 75 |
| Nc1ncnc2c1ncn2[C@H]1C=C[C@@H](O)CC1 (racemic) | 181 to 183 |
| CSc1cnc2c(C)c(C)sc2c1O | 233 to 236 |
| Nc1n[nH]c2cc(C(=O)C=NO)ccc12 | 199 to 201 |
| O=C1NC(=O)C(Cc2ccc(OC[C@@H]3CCCN3c3ccc4ccccc4n3)cc2)S1 (stereo partly drawn) | 81 to 83 |
| O=C1Nc2ccccc2C12COc1ccc3c(c12)OCCO3 (stereo not drawn) | 259 to 261 |
| CC(=O)OC(CCCN1CCN(c2ncc(F)cn2)CC1)c1ccc(F)cc1 (stereo not drawn) | 76 to 77 |

| SMILES | melting point [°C] |
| --- | --- |
| Cc1cccc(C(=O)Nc2nc(=O)n(C3OC(C)C(O)C3O)cc2F)c1 (stereo not drawn) | 146 to 148 |
| CC(C)Cn1c(CN(C)C(N)=O)nc2c(N)nc3ccccc3c21 | 223 to 225 |
| CC(C)(C)OC(=O)N1CCC(=O)N1c1ccc2ccccc2n1 | 112 |
| CCCC(=O)c1cnc2c(OCCCN(C)CCCc3ccccc3)cccc2c1Nc1ccccc1C | 79 to 81 |
| CN(C)CCCOc1ccc(-c2nn(CC(=O)O)c3ncccc23)cc1 | 221 to 223 |
| O=C(N1CCCC1)N1CCN(Cc2ccc3c(c2)-c2[nH]nc(-c4ccsc4)c2C3)CC1 | 214 to 216 |
| Clc1ccc(N2CCN(c3ccccn3)CC2)nn1 | 195 |
| CCOC(=O)c1cn(CC)c2nc(SC)ncc2c1=O | 148 |
| CCC(CC)(CC(=O)Nc1cccc(/C=C/c2nc(C3CC3)cs2)c1)C(=O)O | 153 to 157 |
| C=CCc1cc(-c2ccc(F)cc2)cc(C(=O)OC)c1O | 76 to 77 |
| Cc1scc2c1N(C(=O)NCCN1CCC(CCCC3CCCN3C)CC1)c1ccccc1NC2=O (stereo not drawn) | 145 to 146 |
| CC(C)NC(=O)C(O)C(Oc1ccccc1)c1ccccc1 (stereo not drawn) | 166 to 168 |
| CON(C)C(=O)Nc1nnc(SCc2cccnc2)s1 | 142 to 144 |
| O=c1oc2c(Br)cc(Br)cc2s1 | 104 to 106 |
| Cc1cc(C)c(C(=O)c2c(C)cccc2C)c(OCC(O)CNC(C)C)c1 (stereo not drawn) | 102 to 104 |
| COC(=O)c1cc(OC)c(N(C)C(=O)OCc2ccccc2)c(OC)c1 | 130 to 131 |
| CCO[C@@H](Cc1ccc(OCCN2CCC(C)(C)c3cc(C(=NOC)c4ccc(C(=O)O)cc4)ccc32)cc1)C(=O)O | 83 to 85 |
| CCCCCC(CC(=O)Nc1cc(C(N)=O)ccc1C(C)(C)C)c1cc(C(=O)OC)c(OC)cc1OC (stereo not drawn) | 101 to 103 |
| Cc1ccc(C(=C/C=C/CO)c2ccc(C)cc2)cc1 | 82 to 83 |
| CS(=O)(=O)SCCCCC(=O)O | 69 to 71 |
| CC1=C(C)C(=O)C(CCCCC#CCCCC#CCOC(N)=O)=C(C)C1=O | 56 to 57 |
| COc1cc(OC)c2c(=O)cc(C(C)(C)C(N)=O)oc2c1 | 217 to 219 |
| CCCCCCCCCCc1csc2c1S(=O)(=O)c1c(CCCCCCCCCC)csc1-2 | 58.7 to 60.3 |

Source: a melting point compilation (Tetko et al.; mined from patent text by program, amines drawn as free bases though some values may be those of a salt)
